Measured values as given in patent US8742129B2, “Crystalline forms of febuxostat” (Teva Pharmaceuticals Industries Ltd., priority 2009, dated 2014).

Experiment: Solubility in ethanol of crystalline forms
Type: physicochemical
Details: compared to other crystalline forms

In the case of `Cc1nc(-c2ccc(OCC(C)C)c(C#N)c2)sc1C(=O)O` [Febuxostat form F10, 2-(3-cyano-4-isobutyloxyphenyl)-4-methylthiazole-5-carboxylic acid], the solubility in ethanol is reported as “better solubility in ethanol compared to other crystalline forms”.
